In ChEMBL document CHEMBL5380809, “Discovery of Novel N-Hydroxy-1,2,4-oxadiazole-5-formamides as ASM Direct Inhibitors for the Treatment of Atherosclerosis” (J Med Chem, 2023) one finds IC50, Activity and inhibition data, which are given here for 32 molecules.

As usually defined, the IC50 is the concentration that gives 50% inhibition. Usually inhibition stands for the percentage by which the read-out fell short of the control.

For data set [1], the target named is T1, Sphingomyelin phosphodiesterase (Homo sapiens, UniProt P17405).
T1 sequence (P17405 whole entry): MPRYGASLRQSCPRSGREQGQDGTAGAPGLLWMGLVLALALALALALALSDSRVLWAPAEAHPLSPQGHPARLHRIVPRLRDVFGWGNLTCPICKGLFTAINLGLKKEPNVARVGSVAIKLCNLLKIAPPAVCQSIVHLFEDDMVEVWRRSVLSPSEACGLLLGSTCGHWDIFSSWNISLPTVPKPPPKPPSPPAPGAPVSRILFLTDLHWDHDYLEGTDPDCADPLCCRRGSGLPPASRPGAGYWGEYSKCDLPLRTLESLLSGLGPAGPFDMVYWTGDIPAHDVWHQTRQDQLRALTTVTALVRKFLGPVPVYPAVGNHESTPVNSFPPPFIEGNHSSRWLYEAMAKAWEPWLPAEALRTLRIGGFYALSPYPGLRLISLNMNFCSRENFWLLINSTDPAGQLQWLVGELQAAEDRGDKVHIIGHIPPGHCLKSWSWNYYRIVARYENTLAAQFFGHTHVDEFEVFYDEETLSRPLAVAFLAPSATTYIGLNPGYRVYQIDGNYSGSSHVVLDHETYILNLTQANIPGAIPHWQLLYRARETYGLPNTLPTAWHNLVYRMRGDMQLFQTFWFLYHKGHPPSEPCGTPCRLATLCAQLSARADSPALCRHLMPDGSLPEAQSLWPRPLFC
The data set can be described thus: Inhibition of recombinant human aSMase (62 to 628 residues) using HMU-PC as substrate incubated for 2 hrs by fluorescence based assay.

The test system of data set [2] is Mus musculus. The data set can be described thus: Antiatherosclerotic activity in high-fat diet fed ApoE-/- mouse assessed as reduction in plasma total cholesterol level at 20 mg/kg measured after 8 weeks. The data set is classed as functional, organism-based.
In data set [3] the test system is Mus musculus. The data set can be described thus: Antiatherosclerotic activity in high-fat diet fed ApoE-/- mouse assessed as reduction in aortic arch lipid accumulation at 20 mg/kg measured after 8 weeks. The data set is classed as functional, organism-based.
In data set [4] the test system is Mus musculus. Nature of the data set: Antiatherosclerotic activity in high-fat diet fed ApoE-/- mouse assessed as reduction in plasma LDL-C level at 20 mg/kg measured after 8 weeks. The data set is classed as functional, organism-based.
The test system of data set [5] is Mus musculus. The data set can be described thus: Antiatherosclerotic activity in high-fat diet fed ApoE-/- mouse assessed as reduction in plasma total triacylglycerol level at 20 mg/kg measured after 8 weeks. The data set is classed as functional, organism-based.
The test system of data set [6] is Mus musculus. The data set can be described thus: Antiatherosclerotic activity in high-fat diet fed ApoE-/- mouse assessed as reduction in plasma Ox-LDL-C level at 20 mg/kg measured after 8 weeks. The format is functional, organism-based.
Data set [7] has as its target T2, Sphingomyelin phosphodiesterase (Homo sapiens) (UniProt P17405).
T2 sequence (whole entry): T1 sequence (P17405 whole entry)
Nature of the data set: Inhibition of recombinant human aSMase (62 to 628 residues) using HMU-PC as substrate at 50 uM incubated for 2 hrs by fluorescence based assay relative to control.

In data set [8] the target is T2, Sphingomyelin phosphodiesterase (Homo sapiens). The data set can be described thus: Inhibition of recombinant human aSMase (62 to 628 residues) using HMU-PC as substrate at 25 uM incubated for 2 hrs by fluorescence based assay relative to control.
The target is the same in data set [9]. Nature of the data set: Inhibition of recombinant human aSMase (62 to 628 residues) using HMU-PC as substrate at 50 uM incubated for 2 hrs by fluorescence based assay.
The subject of a further data set is HUVEC. Nature of the data set: Cytotoxicity against HUVEC cells assessed as cell growth inhibition at 0.5 to 20 uM incubated for 24 to 48 hrs by MTT assay. To be noted: human, dose lower 0.5 µM, time lower 24 hrs, dose upper 20 µM, time upper 48 hrs. The format is toxicity, cell-based. (Tetrazolium dyes change colour on reduction, which living cells bring about.)

The nature of data set [10]: Cytotoxicity against HUVEC cells assessed as cell growth inhibition incubated for 24 hrs by MTT assay. The data set is classed as toxicity, cell-based. To be noted: human.
Data set [11] is described as follows: Cytotoxicity against HUVEC cells assessed as cell growth inhibition incubated for 48 hrs by MTT assay. The format is toxicity, cell-based. Conditions: human.
Data set [12] in a line: Inhibition of rat brain aSMase using HMU-PC as substrate incubated for 3 hrs by fluorescence based assay. The data set is classed as tissue-based.

The source made the active and inactive calls. The rule behind the calls is not given here.

As for `O=C(NO)c1nc(COc2ccc(-c3ccccc3)cc2)no1`, the half-maximal inhibitory concentration (IC50) in data set [1] is 0.83 µM. Regarding `CCC(C)(C)C(=O)O[C@H]1C[C@@H](C)C=C2C=C[C@H](C)[C@H](CC[C@@H]3C[C@@H](O)CC(=O)O3)[C@H]21`, the result with Mus musculus [2], in the data set on Mus musculus [3], in the data set on Mus musculus [4] and with Mus musculus [5] was Active. Besides, the result in the data set with Mus musculus [6] was inactive. Turning to `O=C(NO)c1nc(-c2ccc(COc3ccc(Cl)cc3)cc2)no1`, the 50% inhibitory concentration (IC50) in data set [1] turned out to be 4.2 µM. For the molecule `O=C(Cc1noc(-c2ccc(Br)cc2)n1)NO`, the IC50 in data set [1] was over 50 µM. The inhibition in data set [7] is under 50%. For `O=C(NO)c1cc(-c2ccc(-c3ccc(Cl)cc3)cc2)on1`, the IC50 in [1] was over 50 µM. Besides, the inhibition in data set [7] is under 50%. Regarding `COc1cc(-c2nnc(C(=O)NO)o2)ccc1OCC(C)C`, the inhibition in data set [8] is 55%. With `O=C(NO)c1nc(-c2ccc(COc3ccccc3)cc2)no1`, the IC50 in [1] was 3.3 µM. In the case of `O=C(CCCOc1ccc(-c2ccc(Cl)cc2)cc1)NO`, in data set [9], the inhibition result is “inactive”.

Consider `O=C(NO)c1nnc(-c2ccc(OCc3ccccc3)cc2)o1`, for which, in data set [8], the inhibition was 3%. On to `O=C(NO)c1nc(COc2ccc(-c3ccc(Cl)cc3)cc2)no1`, for which the half-maximal inhibitory concentration (IC50) in data set [1] was found to be 0.47 µM. For the molecule `O=C(Cc1noc(-c2ccc(-c3ccc(Cl)cc3)cc2)n1)NO`, the IC50 in data set [1] was over 50 µM. In addition, the inhibition in [7] was under 50%. For `O=C(Cc1noc(COc2ccc(-c3ccccc3)cc2)n1)NO` the same measures were over 50 µM and under 50%. As for `O=C(CCCOc1ccc(-c2cccnc2)cc1)NO`, in [9], the inhibition result is “inactive”. As for `CC(C)COc1ccc(-c2nnc(C(=O)NO)o2)cc1`, the half-inhibitory concentration (IC50) in data set [1] worked out at 0.81 µM. For the same molecule, the Activity result with HUVEC was “Non-Toxic”. Turning to `O=C(NO)c1nnc(-c2ccc(-c3ccc(Cl)cc3)cc2)o1`, the IC50 in data set [1] is 0.51 µM.

Turning to `CCCCOc1ccc(-c2nnc(C(=O)NO)o2)cc1OC`, the inhibition in data set [8] worked out at 57%. `O=C(NO)c1nc(-c2ccc(CNc3ccc(C(F)(F)F)cc3)cc2)no1`: in data set [9], the inhibition result is “inactive”.

On to `O=C(NO)c1nc(-c2ccc(COc3ccccc3Cl)cc2)no1`, for which the inhibition result in data set [9] was “inactive”. As for `O=C(NO)c1cc(-c2ccc(OCc3ccccc3)cc2)on1`, the 50% inhibitory concentration (IC50) in data set [1] came to 7.9 µM.

`O=C(Cc1noc(COc2ccc(-c3ccc(Cl)cc3)cc2)n1)NO`: the IC50 in data set [1] turned out to be 18.7 µM. Consider `O=C(Cc1nc(-c2ccc(COc3ccc(Br)cc3)cc2)no1)NO`, for which, in data set [9], the inhibition entry was “inactive”. For the molecule `O=C(NO)c1nc(-c2ccc(COc3cccc(Cl)c3)cc2)no1`, the concentration for half-maximal inhibition (IC50) in [1] is 8.4 µM. As for `O=C(Cc1nc(-c2ccc(COc3ccccc3)cc2)no1)NO`, in data set [9], the inhibition entry was “inactive”. In the case of `O=C(NO)c1nc(-c2ccc(COc3ccc(C(F)(F)F)cc3)cc2)no1`, in data set [1], the 50% inhibitory concentration (IC50) stood at 8.1 µM. Moreover, the IC50 at 24 h in [10] worked out at 79.1 µM. In addition, in data set [11], the IC50 at 48 h stood at 84.3 µM. As to `O=C(NO)c1noc(COc2ccc(-c3ccccc3)cc2)n1`, the IC50 in data set [1] stood at 4.91 µM. Consider `COc1c(O)cc2oc3cc(O)c(CC=C(C)C)c(O)c3c(=O)c2c1CC=C(C)C` [MANGOSTIN], for which the midpoint of inhibition in data set [12], the IC50, lay at 14.1 µM. Turning to `CCCCOc1ccc(-c2cc(C(=O)NO)no2)cc1`, in data set [1], the IC50 was 1 µM. The same measure, in the same setting: with `O=C(NO)c1noc(-c2ccc(Br)cc2)n1` the figure was 37.3 µM.

Regarding `CCCCOc1ccc(-c2nnc(C(=O)NO)o2)cc1`, in data set [8], the inhibition worked out at 13%. Further, in data set [9], the inhibition entry was “inactive”.

Take `COc1cc(-c2nnc(C(=O)NO)o2)ccc1OCc1ccccc1`: the inhibition in data set [8] was found to be 60%. On to `CC(C)COc1ccc(-c2cc(C(=O)NO)no2)cc1`, for which the IC50 in data set [1] was 6.73 µM.

As for `O=C(NO)c1nc(-c2ccc(CNc3ccc(Cl)cc3)cc2)no1`, the inhibition result in data set [9] is “inactive”.
